Calls of active or inactive are those of the source. The rule behind the calls is not given here.
System: CCRIS mutagenicity, Ames/micronucleus/aberration tests
Assay: CCRIS mutagenicity studies
[1] = Test System: AMES SALMONELLA TYPHIMURIUM, Strain/Indicator: TA98, Metabolic Activation: NONE, Method: STANDARD PLATE
[2] = Test System: AMES SALMONELLA TYPHIMURIUM, Strain/Indicator: TA100, Metabolic Activation: NONE, Method: STANDARD PLATE
[3] = Test System: AMES SALMONELLA TYPHIMURIUM, Strain/Indicator: TA100, Metabolic Activation: S-9, Method: PREINCUBATION

For `CCOP(=S)(OCC)Oc1ccc(S(C)=O)cc1` (configuration not stated), the mutagenic call (End Point: In vivo micronucleus, Species: Mouse, Strain/Sex: NMRI/Male and female) was “inactive; negative”.
For `Cc1cccc(N=Nc2ccc(N(C)C)cc2)c1`, the mutagenic call (Test System: AMES SALMONELLA TYPHIMURIUM, Strain/Indicator: TA98, Metabolic Activation: RAT, LIVER, S-9, KC500 OR PHENOBARBITAL, Method: LIQUID SUSPENSION) was “active; positive”, the mutagenic call (Test System: AMES SALMONELLA TYPHIMURIUM, Strain/Indicator: TA98, Metabolic Activation: RAT, LIVER, S-9, N-BENZYLIMIDAZOLE, Method: PREINCUBATION) was “active; positive” and the mutagenic call (Test System: AMES SALMONELLA TYPHIMURIUM, Strain/Indicator: TA100, Metabolic Activation: RAT, LIVER, S-9, KC500 OR PHENOBARBITAL, Method: LIQUID SUSPENSION) was “active; positive”. The mutagenic call (Test System: AMES SALMONELLA TYPHIMURIUM, Strain/Indicator: TA1538, Metabolic Activation: RAT, LIVER, S-9, PHENOBARBITAL, Method: STANDARD PLATE) was “active; positive”, the mutagenic call (Test System: UDS RODENT HEPATOCYTES, Strain/Indicator: THY INCORP (NON-S-PHASE), Method: AUTORADIOGRAPHY) was “active; positive” and the mutagenic call (Test System: UDS RODENT HEPATOCYTES, Strain/Indicator: THY INCORP (NON-S-PHASE), Method: LIQUID SCINTILLATION COUNTING) was “active; positive”.
For `Nc1nc(N)nc(Cl)n1`, the mutagenic call (Test System: AMES SALMONELLA TYPHIMURIUM, Strain/Indicator: TA97, Metabolic Activation: NONE, Method: STANDARD PLATE) was “inactive; negative”, the mutagenic call [1] was “inactive; negative” and the mutagenic call [2] was “inactive; negative”.
With `CC(=O)Oc1cccc2cccnc12` the mutagenic call [3] was “inactive; negative”.
With `Cl/C=C/CCl` the mutagenic call (End Point: IN VITRO CHROMOSOMAL ABERRATIONS, Test System: CHL CELLS, Metabolic Activation: RAT, LIVER, S-9, SODIUM PHENOBARBITAL AND 5,6-BENZOFLAVONE) was “active; positive (structural and ploidy changes)”, the mutagenic call (End Point: IN VITRO CHROMOSOMAL ABERRATIONS, Test System: CHO CELLS, Metabolic Activation: NONE) was “inactive; negative; previous trial yielded positive result at 49.1 ug/ml but no dose-respo” and the mutagenic call (End Point: IN VITRO CHROMOSOMAL ABERRATIONS, Test System: CHO CELLS, Metabolic Activation: RAT, LIVER, S-9, AROCLOR 1254) was “inactive; negative”. The mutagenic call (Test System: AMES SALMONELLA TYPHIMURIUM, Strain/Indicator: RSJ100, Metabolic Activation: NONE, Method: VAPOR PHASE) was “active; positive”, the mutagenic call (Test System: AMES SALMONELLA TYPHIMURIUM, Strain/Indicator: TA98, Metabolic Activation: HAMSTER, LIVER, S-9, AROCLOR 1254, Method: STANDARD PLATE) was “active; positive” and the mutagenic call (Test System: AMES SALMONELLA TYPHIMURIUM, Strain/Indicator: TA98, Metabolic Activation: NONE, Method: DESICCATOR) was “active; positive”. For the same molecule, the mutagenic call [1] was “active; positive”, the mutagenic call (Test System: AMES SALMONELLA TYPHIMURIUM, Strain/Indicator: TA98, Metabolic Activation: RAT, LIVER, S-9, AROCLOR 1254, Method: DESICCATOR) was “active; positive” and the mutagenic call (Test System: AMES SALMONELLA TYPHIMURIUM, Strain/Indicator: TA98, Metabolic Activation: RAT, LIVER, S-9, AROCLOR 1254, Method: STANDARD PLATE) was “active; positive”. For the same molecule, the mutagenic call (Test System: AMES SALMONELLA TYPHIMURIUM, Strain/Indicator: TA100, Metabolic Activation: HAMSTER, LIVER, S-9, AROCLOR 1254, Method: STANDARD PLATE) was “active; positive”, the mutagenic call (Test System: AMES SALMONELLA TYPHIMURIUM, Strain/Indicator: TA100, Metabolic Activation: NONE, Method: DESICCATOR) was “active; positive” and the mutagenic call [2] was “active; positive”. The mutagenic call (Test System: AMES SALMONELLA TYPHIMURIUM, Strain/Indicator: TA100, Metabolic Activation: RAT, LIVER, S-9, AROCLOR 1254, Method: DESICCATOR) was “active; positive”, the mutagenic call (Test System: AMES SALMONELLA TYPHIMURIUM, Strain/Indicator: TA100, Metabolic Activation: RAT, LIVER, S-9, AROCLOR 1254, Method: STANDARD PLATE) was “active; positive” and the mutagenic call (Test System: AMES SALMONELLA TYPHIMURIUM, Strain/Indicator: TA1535, Metabolic Activation: HAMSTER, LIVER, S-9, AROCLOR 1254, Method: STANDARD PLATE) was “active; positive”. For the same molecule, the mutagenic call (Test System: AMES SALMONELLA TYPHIMURIUM, Strain/Indicator: TA1535, Metabolic Activation: NONE, Method: DESICCATOR) was “active; positive”, the mutagenic call (Test System: AMES SALMONELLA TYPHIMURIUM, Strain/Indicator: TA1535, Metabolic Activation: NONE, Method: STANDARD PLATE) was “active; positive” and the mutagenic call (Test System: AMES SALMONELLA TYPHIMURIUM, Strain/Indicator: TA1535, Metabolic Activation: RAT, LIVER, S-9, AROCLOR 1254, Method: DESICCATOR) was “active; positive”. For the same molecule, the mutagenic call (Test System: AMES SALMONELLA TYPHIMURIUM, Strain/Indicator: TA1535, Metabolic Activation: RAT, LIVER, S-9, AROCLOR 1254, Method: STANDARD PLATE) was “active; positive”, the mutagenic call (Test System: AMES SALMONELLA TYPHIMURIUM, Strain/Indicator: TA1537, Metabolic Activation: HAMSTER, LIVER, S-9, AROCLOR 1254, Method: STANDARD PLATE) was “inactive; negative” and the mutagenic call (Test System: AMES SALMONELLA TYPHIMURIUM, Strain/Indicator: TA1537, Metabolic Activation: NONE, Method: STANDARD PLATE) was “inactive; negative”. The mutagenic call (Test System: AMES SALMONELLA TYPHIMURIUM, Strain/Indicator: TA1537, Metabolic Activation: RAT, LIVER, S-9, AROCLOR 1254, Method: STANDARD PLATE) was “inactive; negative”, the mutagenic call (Test System: AMES SALMONELLA TYPHIMURIUM, Strain/Indicator: TPT100, Metabolic Activation: NONE, Method: VAPOR PHASE) was “active; positive” and the mutagenic call (Test System: UDS HUMAN HEPATOCYTES, Strain/Indicator: THY INCORP, Metabolic Activation: NONE, Method: AUTORADIOGRAPHY) was “active; positive”. The mutagenic call (Test System: UDS RAT HEPATOCYTES, Strain/Indicator: THY INCORP, Metabolic Activation: NONE, Method: AUTORADIOGRAPHY) was “active; positive” and the mutagenic call (Test System: UDS RAT HEPATOCYTES, Strain/Indicator: THY INCORP, Metabolic Activation: NONE, Method: IN VIVO-IN VITRO) was “inactive; negative”.
`CC(Br)(CBr)CBr` was tested, and the mutagenic call (Test System: AMES SALMONELLA TYPHIMURIUM, Strain/Indicator: TA98, Metabolic Activation: NONE, Method: FLASK ASSAY) was “inactive; negative”, the mutagenic call (Test System: AMES SALMONELLA TYPHIMURIUM, Strain/Indicator: TA98, Metabolic Activation: RAT, LIVER, S-9, AROCLOR 1254, Method: FLASK ASSAY) was “inactive; negative” and the mutagenic call (Test System: AMES SALMONELLA TYPHIMURIUM, Strain/Indicator: TA100, Metabolic Activation: NONE, Method: FLASK ASSAY) was “inactive; negative”. For the same molecule, the mutagenic call (Test System: AMES SALMONELLA TYPHIMURIUM, Strain/Indicator: TA100, Metabolic Activation: RAT, LIVER, S-9, AROCLOR 1254, Method: FLASK ASSAY) was “inactive; negative”, the mutagenic call (Test System: AMES SALMONELLA TYPHIMURIUM, Strain/Indicator: TA1535, Metabolic Activation: NONE, Method: FLASK ASSAY) was “inactive; negative” and the mutagenic call (Test System: AMES SALMONELLA TYPHIMURIUM, Strain/Indicator: TA1535, Metabolic Activation: RAT, LIVER, S-9, AROCLOR 1254, Method: FLASK ASSAY) was “inactive; negative”. For the same molecule, the mutagenic call (Test System: AMES SALMONELLA TYPHIMURIUM, Strain/Indicator: TA1537, Metabolic Activation: NONE, Method: FLASK ASSAY) was “inactive; negative”, the mutagenic call (Test System: AMES SALMONELLA TYPHIMURIUM, Strain/Indicator: TA1537, Metabolic Activation: RAT, LIVER, S-9, AROCLOR 1254, Method: FLASK ASSAY) was “inactive; negative” and the mutagenic call (Test System: AMES SALMONELLA TYPHIMURIUM, Strain/Indicator: TA1538, Metabolic Activation: NONE, Method: FLASK ASSAY) was “inactive; negative”. The mutagenic call (Test System: AMES SALMONELLA TYPHIMURIUM, Strain/Indicator: TA1538, Metabolic Activation: RAT, LIVER, S-9, AROCLOR 1254, Method: FLASK ASSAY) was “inactive; negative”, the mutagenic call (Test System: MOUSE LYMPHOMA, Strain/Indicator: L5178Y (TK+/TK-), Metabolic Activation: NONE, Method: SUSPENSION/PLATE) was “active; positive” and the mutagenic call (Test System: MOUSE LYMPHOMA, Strain/Indicator: L5178Y (TK+/TK-), Metabolic Activation: RAT, LIVER, S-9, AROCLOR 1254, Method: SUSPENSION/PLATE) was “active; positive”.
For `O=C1CN(CCN2CC(=O)N(CN3CCOCC3)C(=O)C2)CC(=O)N1CN1CCOCC1`, the mutagenic call (Test System: AMES SALMONELLA TYPHIMURIUM, Strain/Indicator: TA97, Metabolic Activation: NONE, Method: PREINCUBATION) was “inactive; negative”, the mutagenic call (Test System: AMES SALMONELLA TYPHIMURIUM, Strain/Indicator: TA97, Metabolic Activation: S-9, Method: PREINCUBATION) was “inactive; negative” and the mutagenic call (Test System: AMES SALMONELLA TYPHIMURIUM, Strain/Indicator: TA98, Metabolic Activation: NONE, Method: PREINCUBATION) was “active; positive”. The mutagenic call (Test System: AMES SALMONELLA TYPHIMURIUM, Strain/Indicator: TA98, Metabolic Activation: S-9, Method: PREINCUBATION) was “inactive; negative”, the mutagenic call (Test System: AMES SALMONELLA TYPHIMURIUM, Strain/Indicator: TA100, Metabolic Activation: NONE, Method: PREINCUBATION) was “inactive; negative” and the mutagenic call [3] was “inactive; negative”. The mutagenic call (Test System: AMES SALMONELLA TYPHIMURIUM, Strain/Indicator: TA102, Metabolic Activation: NONE, Method: PREINCUBATION) was “active; positive” and the mutagenic call (Test System: AMES SALMONELLA TYPHIMURIUM, Strain/Indicator: TA102, Metabolic Activation: S-9, Method: PREINCUBATION) was “inactive; negative”.

From PubChem BioAssay AID1259407 (Chemical Carcinogenesis Research Information System (CCRIS), 2018)
